The text below walks through data of patent publication US7632505B2, “Treatment of macrophage mediated disease” (Purdue Research Foundation, priority 2001, dated 2009).

In assay [1] the test system is adjuvant-induced arthritis in rats. The experiment in a line: Adjuvant-induced arthritis, paw swelling (immunotherapy mediated protection). The note with it: for inhibition of adjuvant-induced arthritis, left and right paw: Example 14, folate-FITC 3000 nmoles/kg per day, days 1,2,3, osmotic pump, MTX 0.15 mg ip days 1,8,15. It is filed as in vivo, rat.
Protocol: Arthritis was induced in 150-200 g female Lewis rats (Charles River Laboratories, Inc., Wilmington, Mass.), n=4/dose group. Briefly, 0.5 mg of heat-killed Mycoplasma butericum, suspended in mineral oil (5 mg/ml), was injected on day 0 into the left hind foot of rats following anesthesia with ketamine and xylazine. Disease was allowed to progress for 21 days, and animals were weighed on a daily basis to ensure the status of their health. […] Control rats were also maintained on a folate-deficient diet but not induced to develop arthritis.
The efficacy of a folate-FITC conjugate (folate-fluorescein isothiocyanate conjugate) against adjuvant-induced arthritis in rats was investigated. Each rat used in the experiment was immunized at the base of the tail with FITC-KLH (150 μg) to induce antibodies against FITC on days −38 and −10 before administration of Mycoplasma butericum (adjuvant) to induce arthritis. The immunization of FITC-KLH was done in combination with an adjuvant (i.e., such as TITERMAX® GOLD (150 μg), Alum (150 μg), or GPI-100 (150 μg) which are all adjuvants to induce antibodies against FITC as opposed to the adjuvant used to induce arthritis). The immunized animals were then injected on day 0 in the left foot pad with 0.5 mg of heat-killed Mycoplasma butyricum (adjuvant) to initiate development of arthritis. Then on days 1, 2, 3, 9, 11, and 14, post-adjuvant (Mycoplasma butyricum) injection, the rats were injected intraperitoneally with either saline (control rats) or 2000 nmoles/kg of folate-FITC (FF). Calipers were used to measure left and right foot dimensions daily.
Methotrexate (MTX) was administered at a dose of 0.15 mg by intraperitoneal injection one time per day on days 1, 8, and 15 after adjuvant administration. MTX was used in place of folate-FITC for animals treated with MTX.
Other animals were treated with 0.75 mg of MTX (FF+mid) or 1.5 mg of MTX (FF+high).
The subject of assay [2] is activated macrophages. The experiment in a line: Biodistribution analysis (gamma counting of harvested tissues) in arthritic rats. The note with it: FF 2000 nmoles/kg days 1,2,3,9,11,14 or MTX 0.15 mg days 1,8,15. It is filed as in vivo, rat.
Protocol: Arthritis was induced in 150-200 g female Lewis rats (Charles River Laboratories, Inc., Wilmington, Mass.), n=4/dose group. Briefly, 0.5 mg of heat-killed Mycoplasma butericum, suspended in mineral oil (5 mg/ml), was injected on day 0 into the left hind foot of rats following anesthesia with ketamine and xylazine. Disease was allowed to progress for 21 days, and animals were weighed on a daily basis to ensure the status of their health. […] All rats were maintained on a folate-deficient diet (DYETS, Inc., Bethlehem, Pa.) for 3 weeks prior to administration of folate-FITC in order to lower serum folate levels to physiologically relevant concentrations. Control rats were also maintained on a folate-deficient diet but not induced to develop arthritis.
Seventeen days following induction of the arthritis and three days prior to administration of the imaging agent (EC20), rats destined for macrophage depletion received a single intraperitoneal injection of clodronate liposomes containing 20 mg clodronate. […]
For biodistribution analysis, rats were euthanized by intraperitoneal injection of nebutal or pentobarbitol sodium. Liver, spleen, heart, lungs, intestine, and kidneys were then harvested and radiation in each tissue was determined by counting in a gamma counter (Packard BioScience Co., Meridian, Conn.).
Assay [3] concerns liver macrophages. The experiment in a line: Flow cytometry of folate-FITC binding to disaggregated liver cells (ED2 macrophage marker). It is filed as cell-based, rat. The source says:
The protocols described in Examples 2, 4, 6 and 7 were used. To further confirm that the elevated uptake of EC20 in livers of arthritic rats is due to a macrophage population, livers were resected from collagenase-perfused rats and their disaggregated cells examined for folate conjugate uptake, using folate-FITC as a fluorescent marker for FR expression.

Assay [4] has as its system Mac-1+ peripheral blood cells. The source says: (§1) Using an antibody specific for granulocytes, we also examined whether tissue infiltrating neutrophils might take up folate conjugates.
Assay [5] deals with tissue infiltrating neutrophils.
Excerpt: as §1

Setting [6] is: Example 8, 2000 nmoles/kg ip days 1,2,3,9,11,14, FITC-immunized rats.

As to `CN(Cc1cnc2nc(N)nc(N)c2n1)c1ccc(C(=O)N[C@@H](CCC(=O)O)C(=O)O)cc1` [MTX, Methotrexate, reference compound], the “inhibition of adjuvant-induced arthritis, left and right paw” value in assay [1] is “inhibits adjuvant-induced arthritis as well as MTX”. Moreover, the “effect of treatment on EC20 organ uptake” value in assay [2] is “prevent EC20 uptake in all organs examined except the kidney”.

Turning to `Nc1nc2ncc(CNc3ccc(C(=O)NC(CCC(=O)NCCNC(=S)Nc4ccc(C(=O)O)c(-c5c6ccc(=O)cc-6oc6cc(O)ccc56)c4)C(=O)O)cc3)nc2c(=O)[nH]1` (stereo not shown) [folate-FITC, folate-fluorescein isothiocyanate], the “binding in presence of excess free folic acid” value in assay [3] (1 mM folic acid) is given as “suppressed”. Also, the “liver macrophages that bound folate-FITC” value in assay [3] (arthritic rats, 1 μM folate-FITC) worked out at 70%. Besides, in assay [3] (vs macrophages from healthy livers), the “FITC intensity of arthritic macrophages” value is “higher than that of macrophages from healthy livers”. In addition, in assay [4], the “binding to Mac-1+ peripheral blood cells” value is “no binding affinity”. Further, the “binding to liver neutrophils” value in assay [5] was “no binding capacity”. For the same molecule, in assay [1] (setting [6]), the “activated macrophages invading feet after about 10 days (foot dimensions)” value is given as “eliminated or reduced” and the “early (neutrophil) phase of paw swelling of adjuvant-injected feet” value is “no impact on this phase of paw swelling”. Besides, the “inhibition of adjuvant-induced arthritis, left and right paw” value in assay [1] is given as “inhibits adjuvant-induced arthritis as well as MTX”. For the same molecule, in assay [1] (Example 15, 3000 nmoles/kg, days 1,2,3,9,11,14 vs days 1,2,3), the “prolonged treatment vs 3 initial doses” value was “prolonged treatment with FF is more effective than 3 initial doses”. Also, the “inhibition of adjuvant-induced arthritis, right (uninjected) paw volume” value in assay [1] (Example 15, FF 3000, 600 and 120 nmoles/kg) was “inhibits adjuvant-induced arthritis in the right paw”. Moreover, in assay [2], the “effect of treatment on EC20 organ uptake” value was “prevent EC20 uptake in all organs examined except the kidney”.
